IC50 data for 18 compounds are collected here from patent US8202885B2, “Bridged six-membered ring compounds” (Actelion Pharmaceuticals Ltd., priority 2007, dated 2012).

“And” between values parts separate entries of the source, which are not always exact repeats. Identical values can stand only once.

For this experiment, the system named is human Cav3.1 Cav3.2 or Cav3.3 channel. Briefly: In vitro assay T channel (FLIPR calcium fluorescence). Type of experiment: cell-based. The conditions noted are these: HEK293 cells expressing human Cav3.1, Cav3.2 or Cav3.3; 10 mM Ca2+-induced fluo-4 fluorescence; determined up to 10 μM; read-out: T channel antagonistic activity IC50. As for the experimental part: The T channel antagonistic activity (IC50 values) of the compounds of formula (I) is determined in accordance with the following experimental method and data are shown in Table 1.
Human embryonic kidney (HEK293) cells expressing the human Cav3.1 Cav3.2 or Cav3.3 channel, respectively, are grown in culture medium (DMEM containing 10% heat-inactivated fetal calf serum (FCS), 100 U/ml penicillin, 100 μg/ml streptomycin and 1 mg/ml G418). The cells are seeded at 20.000 cells/well into 384-well black clear bottom sterile plates (poly-L-lysine-coated, Becton Dickinson). The seeded plates are incubated overnight at 37° C. in 5% CO2. The Ca^2+ solution is prepared as 100 mM stock solution in 100 mM tetraethylammoniumchloride (TEA-chloride), 50 mM HEPES, 2.5 mM CaCl2, 5 mM KCl, 1 mM MgCl2, adjusted to pH 7.2 with TEA-hydroxide, for use in the assay at a final concentration of 10 mM. Antagonists are prepared as 10 mM stock solutions in DMSO, then diluted in 384 w plates first in DMSO, then in 100 mM TEA-chloride, 50 mM HEPES, 2.5 mM CaCl2, 5 mM KCl, 1 mM MgCl2, adjusted to pH 7.2 with TEA-hydroxide, to obtain 9× stocks. On the day of the assay, 25 μl of staining buffer (HBSS containing 20 mM HEPES, 0.375 g/l NaHCO3 and 3 μM of the fluorescent calcium indicator fluo-4 AM (1 mM stock solution in DMSO, containing 10% pluronic) is added to each well of the seeded plate. The 384-well cell-plates are incubated for 60 min at 37° C. in 5% CO2 followed by washing with 2×50 μl per well using HBSS containing 0.1% BSA, 20 mM HEPES, 0.375 g/l NaHCO3, leaving 50 […] of this buffer for equilibration at room temperature (30-60 min). Within the Fluorescent Imaging Plate Reader (FLIPR, Molecular Devices), antagonists are added to the plate in a volume of 6.25 μl/well, incubated for 3 min, and finally 6.25 […] of Ca^2+ solution is added. Fluorescence is measured for each well at 2 second intervals for 8 minutes, and the area under the curve of each fluorescence peak is compared to the area of the fluorescence peak induced by 10 mM Ca^2+ with vehicle in place of antagonist. For each antagonist, the IC50 value (the concentration (in nM) of compound needed to inhibit 50% of the Ca^2+-induced fluorescence response) up to 10 μM is determined.
By IC50 is commonly meant the concentration needed to halve the response being measured. Take `CC(C)C(=O)OC1(CCN(C)CCCc2nc3ccccc3[nH]2)CC2CCC1C1=C2CCc2ccccc21` (racemic) [Example 18A, rac-Isobutyric acid (1R*,3R*,4R*)-1,2,3,4,9,10-hexahydro-3-hydroxy-3-{N-methyl-N-(3-benzimidazol-2-ylpropyl)aminoethyl}-1,4-ethanophenanthrene ester]: the IC50 was 2.05 µM.

Turning to `COc1ccc(C2=CC3CCC2CC3(O)CCN(C)CCCc2nc3ccccc3[nH]2)cc1` (racemic) [Example 22, rac-(1R*,2R*,4R*)-2-(2-{[3-(1H-Benzoimidazol-2-yl)-propyl]-methyl-amino}-ethyl)-5-(4-methoxy-phenyl)-2-yl-bicyclo[2.2.2]oct-5-en-2-ol], the concentration for half-maximal inhibition (IC50) is more than 10 µM.

Turning to `COc1ccccc1C1=CC2CCC1CC2(O)CCN(C)CCCc1nc2ccccc2[nH]1` (racemic) [Example 23, rac-(1R*,2R*,4R*)-2-(2-{[3-(1H-Benzoimidazol-2-yl)-propyl]-methyl-amino}-ethyl)-5-(2-methoxy-phenyl)-2-yl-bicyclo[2.2.2]oct-5-en-2-ol], the half-maximal inhibitory concentration (IC50) came out at 3.31 µM.

As to `CC(C)C(=O)OC1(CCN(C)CCCc2nc3ccccc3[nH]2)CC2CCC1CC2c1ccccc1` (racemic) [Example 73A, rac-Isobutyric acid (1R*,2R*,4R*,5S*)-2-(2-{[3-(1H-benzoimidazol-2-yl)-propyl]-methyl-amino}-ethyl)-5-phenyl-bicyclo[2.2.2]oct-2-yl ester and rac-isobutyric acid (1R*,2R*,4R*,5R*)-2-(2-{[3-(1H-benzoimidazol-2-yl)-propyl]-methyl-amino}-ethyl)-5-phenyl-bicyclo[2.2.2]oct-2-yl ester], the IC50 is 1.75 µM and 2 µM.

As for `CN(CCCc1nc2ccccc2[nH]1)CC[C@]1(O)C[C@H]2CC[C@@H]1C=C2c1ccccc1` (relative stereo) [Example 1, rac-(1R*,2R*,4R*)-2-(2-{[3-(1H-Benzoimidazol-2-yl)-propyl]-methyl-amino}-ethyl)-5-phenyl-bicyclo[2.2.2]oct-5-en-2-ol], the IC50 is 2.29 µM.

As to `CC(C)C(=O)O[C@@]1(CCN(C)CCCc2nc3ccccc3[nH]2)C[C@H]2CC[C@@H]1C=C2c1ccccc1` (relative stereo) [Example 1A, rac-Isobutyric acid (1R*,2R*,4R*)-2-(2-{[3-(1H-Benzoimidazol-2-yl)-propyl]-methyl-amino}-ethyl)-5-phenyl-bicyclo[2.2.2]oct-5-en-2-yl ester], the IC50 came to 4.94 µM.

Turning to `COc1cccc(C2=C[C@H]3CC[C@@H]2C[C@@]3(O)CCN(C)CCCc2nc3ccccc3[nH]2)c1` (relative stereo) [Example 2, rac-(1R*,2R*,4R*)-2-(2-{[3-(1H-Benzoimidazol-2-yl)-propyl]-methyl-amino}-ethyl)-5-(3-methoxy-phenyl)-bicyclo[2.2.2]oct-5-en-2-ol], the IC50 worked out at 5.98 µM.

In the case of `Cc1cccc(C)c1C1=C[C@H]2CC[C@@H]1C[C@@]2(O)CCN(C)CCCc1nc2ccccc2[nH]1` (relative stereo) [Example 3, rac-(1R*,2R*,4R*)-2-(2-{[3-(1H-Benzoimidazol-2-yl)-propyl]-methyl-amino}-ethyl)-5-(2,6-dimethyl-phenyl)-bicyclo[2.2.2]oct-5-en-2-ol], the IC50 amounted to 6.63 µM.

Regarding `Cc1cccc(C)c1C1=C[C@H]2CC[C@@H]1C[C@]2(CCN(C)CCCc1nc2ccccc2[nH]1)OC(=O)C(C)C` (relative stereo) [Example 3A, rac-Isobutyric acid (1R*,2R*,4R*)-2-(2-{[3-(1H-benzoimidazol-2-yl)-propyl]-methyl-amino}-ethyl)-5-(2,6-dimethyl-phenyl)-bicyclo[2.2.2]oct-5-en-2-yl ester], the IC50 was 4.6 µM.

On to `Cc1ccccc1C1=C[C@H]2CC[C@@H]1C[C@@]2(O)CCN(C)CCCc1nc2ccccc2[nH]1` (relative stereo) [Example 4, rac-(1R*,2R*,4R*)-2-(2-{[3-(1H-Benzoimidazol-2-yl)-propyl]-methyl-amino}-ethyl)-5-(2-methyl-phenyl)-bicyclo[2.2.2]oct-5-en-2-ol], for which the half-inhibitory concentration (IC50) came to 3.61 µM.

As for `Cc1ccccc1C1=C[C@H]2CC[C@@H]1C[C@]2(CCN(C)CCCc1nc2ccccc2[nH]1)OC(=O)C(C)C` (relative stereo) [Example 4A, rac-Isobutyric acid (1R*,2R*,4R*)-2-(2-{[3-(1H-benzoimidazol-2-yl)-propyl]-methyl-amino}-ethyl)-5-(2-methyl-phenyl)-bicyclo[2.2.2]oct-5-en-2-yl ester], the IC50 worked out at 4.22 µM.

`Cc1cccc(C2=C[C@H]3CC[C@@H]2C[C@@]3(O)CCN(C)CCCc2nc3ccccc3[nH]2)c1` (relative stereo) [Example 5, rac-(1R*,2R*,4R*)-2-(2-{[3-(1H-Benzoimidazol-2-yl)-propyl]-methyl-amino}-ethyl)-5-(3-methyl-phenyl)-bicyclo[2.2.2]oct-5-en-2-ol]: the half-maximal inhibitory concentration (IC50) came to 8.42 µM.

Turning to `Cc1cccc(C2=C[C@H]3CC[C@@H]2C[C@]3(CCN(C)CCCc2nc3ccccc3[nH]2)OC(=O)C(C)C)c1` (relative stereo) [Example 5A, rac-Isobutyric acid (1R*,2R*,4R*)-2-(2-{[3-(1H-benzoimidazol-2-yl)-propyl]-methyl-amino}-ethyl)-5-(3-methyl-phenyl)-bicyclo[2.2.2]oct-5-en-2-yl ester], the IC50 is 3.45 µM.

As to `Cc1ccc(C2=C[C@H]3CC[C@@H]2C[C@@]3(O)CCN(C)CCCc2nc3ccccc3[nH]2)cc1` (relative stereo) [Example 6, rac-(1R*,2R*,4R*)-2-(2-{[3-(1H-Benzoimidazol-2-yl)-propyl]-methyl-amino}-ethyl)-5-(4-methyl-phenyl)-bicyclo[2.2.2]oct-5-en-2-ol], the IC50 came to 4.85 µM.

Take `Cc1ccc(C2=C[C@H]3CC[C@@H]2C[C@]3(CCN(C)CCCc2nc3ccccc3[nH]2)OC(=O)C(C)C)cc1` (relative stereo) [Example 6A, rac-Isobutyric acid (1R*,2R*,4R*)-2-(2-{[3-(1H-benzoimidazol-2-yl)-propyl]-methyl-amino}-ethyl)-5-(4-methyl-phenyl)-bicyclo[2.2.2]oct-5-en-2-yl ester]: the IC50 came out at 6.83 µM.

With `CN(CCCc1nc2ccccc2[nH]1)CC[C@]1(O)C[C@H]2CC[C@@H]1C=C2c1cccc(F)c1` (relative stereo) [Example 7, rac-(1R*,2R*,4R*)-2-(2-{[3-(1H-Benzoimidazol-2-yl)-propyl]-methyl-amino}-ethyl)-5-(3-fluoro-phenyl)-bicyclo[2.2.2]oct-5-en-2-ol], the IC50 is 4.4 µM.

Turning to `CC(C)C(=O)O[C@@]1(CCN(C)CCCc2nc3ccccc3[nH]2)C[C@H]2CC[C@@H]1C=C2c1cccc(F)c1` (relative stereo) [Example 7A, rac-Isobutyric acid (1R*,2R*,4R*)-2-(2-{[3-(1H-benzoimidazol-2-yl)-propyl]-methyl-amino}-ethyl)-5-(3-fluoro-phenyl)-bicyclo[2.2.2]oct-5-en-2-yl ester], the half-inhibitory concentration (IC50) was 3.14 µM.

As to `CN(CCCc1nc2ccccc2[nH]1)CC[C@]1(O)C[C@H]2CC[C@@H]1C=C2c1ccc(F)cc1` (relative stereo) [Example 8, rac-(1R*,2R*,4R*)-2-(2-{[3-(1H-Benzoimidazol-2-yl)-propyl]-methyl-amino}-ethyl)-5-(4-fluoro-phenyl)-bicyclo[2.2.2]oct-5-en-2-ol], the IC50 came out at 1.79 µM.
